Laboratory results taken from the NIST ThermoML archive (doi:10.1021/je400841s).
± gives the expanded uncertainty stated by the source.

Details: 101.33 kPa, Liquid; for mass density: Vibrating tube method; for viscosity: Concentric cylinders viscometry; for electrical conductivity: impedancemetry (AC impedance bridge)

CCCCn1cc[n+](C)c1.COS(=O)(=O)[O-] [1-butyl-3-methylimidazolium methyl sulfate]
Details | electrical conductivity [S/m] | mass density [kg/m3] | viscosity [mPa·s]
298.08 K | – | 1210.5 ± 0.3 | –
298.15 K | 0.126 ± 0.005 | – | 223 ± 8
302.78 K | – | 1207.6 ± 0.3 | –
303.15 K | 0.16 ± 0.006 | – | –
312.49 K | – | 1201.4 ± 0.3 | –
313.15 K | 0.254 ± 0.01 | – | 101 ± 3
322.23 K | – | 1195 ± 0.3 | –
323.15 K | 0.382 ± 0.015 | – | 64.3 ± 2
332.16 K | – | 1188.7 ± 0.3 | –
333.15 K | 0.551 ± 0.022 | – | 43.6 ± 1.4
341.68 K | – | 1182.9 ± 0.3 | –
343.15 K | 0.757 ± 0.03 | – | 31.1 ± 1

CCCCn1cc[n+](C)c1.O=S(=O)([O-])C(F)(F)F [1-butyl-3-methylimidazolium trifluoromethanesulfonate]
Details | electrical conductivity [S/m] | mass density [kg/m3] | viscosity [mPa·s]
297.98 K | – | 1294.7 ± 0.3 | –
298.15 K | 0.301 ± 0.012 | – | 86.6 ± 2.7
302.79 K | – | 1291.3 ± 0.3 | –
303.15 K | 0.378 ± 0.015 | – | –
313 K | – | 1283.1 ± 0.3 | –
313.15 K | 0.553 ± 0.022 | – | 45.6 ± 1.5
323.12 K | – | 1275.2 ± 0.3 | –
323.15 K | 0.763 ± 0.031 | – | 31.6 ± 1
333.12 K | – | 1267.4 ± 0.3 | –
333.15 K | 1.01 ± 0.04 | – | 23 ± 0.7
343.12 K | – | 1259.8 ± 0.3 | –
343.15 K | 1.29 ± 0.052 | – | 17.2 ± 0.5

CCn1cc[n+](C)c1.COS(=O)(=O)[O-] [1-ethyl-3-methylimidazolium methylsulfate]
Details | electrical conductivity [S/m] | mass density [kg/m3] | viscosity [mPa·s]
298.03 K | – | 1282.1 ± 0.3 | –
298.15 K | 0.602 ± 0.024 | – | 74.3 ± 2.3
303.15 K | 0.723 ± 0.029 | – | –
312.67 K | – | 1272.2 ± 0.3 | –
313.15 K | 1.02 ± 0.041 | – | 40.6 ± 1.3
322.6 K | – | 1265.8 ± 0.3 | –
323.15 K | 1.39 ± 0.056 | – | 28.8 ± 0.9
332.35 K | – | 1259.4 ± 0.3 | –
333.15 K | 1.84 ± 0.074 | – | 21.2 ± 0.7
342.22 K | – | 1252.9 ± 0.3 | –
343.15 K | 2.34 ± 0.093 | – | 16.1 ± 0.5

CCn1cc[n+](C)c1.O=S(=O)([O-])C(F)(F)F [1-ethyl-3-methylimidazolium trifluoromethanesulfonate]
Details | electrical conductivity [S/m] | mass density [kg/m3] | viscosity [mPa·s]
293.15 K | – | 1382.9 ± 0.3 | –
298.15 K | 0.913 ± 0.037 | – | 45.9 ± 1.4
303.14 K | – | 1374.6 ± 0.3 | –
313.14 K | – | 1366.3 ± 0.3 | –
313.15 K | 1.45 ± 0.058 | – | 27.6 ± 0.9
323.14 K | – | 1358 ± 0.3 | –
323.15 K | 1.74 ± 0.07 | – | 20.2 ± 0.6
333.14 K | – | 1349.8 ± 0.3 | –
333.15 K | 2.19 ± 0.088 | – | 15.5 ± 0.5
343.14 K | – | 1341.7 ± 0.3 | –
343.15 K | 2.6 ± 0.1 | – | 12.3 ± 0.4
353.14 K | – | 1333.7 ± 0.3 | –
